Data taken from paper PMC10287695, “Non-covalent inhibitors of thioredoxin glutathione reductase with schistosomicidal activity in vivo” (Nature Communications, 2023).
Several values for one entry are separate records, joined by “and”; a condition that tells them apart may be missing. Equal values may be shown once.

Key:
BmTrxR = BmTrxR (Brugia malayi, UniProt A0A1I9G0T9); assay: B. malayi TrxR enzyme inhibition; format: biochemical
Protocol: Recombinant TGR, human TrxR1, B. malayi (Bm)TrxR and human GR proteins were expressed and purified as described[20],[69],[79]. The codon optimized sequence for P. falciparum (PfTrxR, https://www.ncbi.nlm.nih.gov/protein/CAA60574.1/) with an N-terminal 6-His tag was synthesized and inserted into pET15b (GenScript) and expressed in BL21 (DE3) cells and purified as described for human GR[20]. […] The reaction was started with addition of an equal volume of DTNB (6 mM) and NADPH (100 µM) and the increase in A412 during the first 3 min was recorded. […] Activity was initiated with the addition of 1 mM GSSG and 100 μM NADPH and initial rates of NADPH oxidation were monitored at 340 nm. The reactions were done in triplicate. The IC50 was calculated in GraphPad Prism.

S. mansoni adult worms = assay: GSH/GSSG ratio in ex vivo adult worms; format: cell-based; conditions: 1 hr; second data set (r136-144), baseline 63.5617, DMSO 63.4928
Protocol: We assessed GSH/GSSG levels experimentally by treating S. mansoni adult worms with 50 µM of compounds, or respective controls 5 µM Auranofin, 50 µM PZQ or 50 µM MZM and 0.01% DMSO for 3 h. Worm homogenate was prepared by washing three times with PBS to remove residual compounds and ten volumes of ice cold 5% sulfosalicylic acid was added. Worms were manually homogenized on ice using VWR Pellet Mixer Adaptor. The worm suspension was centrifuged at 14000 × g, 4 °C for 10 min and the acid supernatants transferred. An equal volume of ice-cold neutralization buffer (500 mM HEPES, pH 8.0) was added to the acid supernatants.
GSH/GSSG assay was performed by diluting the acid supernatant (5-fold) with ice-cold dilution buffer (250 mM HEPES, pH 7.5). Using white opaque luminescence plate on ice, 25 µl of the diluted worm acid supernatant was added each well in triplicates. Total glutathione lysis reagent and GSSG lysis reagent, which contains alkylating agent N-ethylmaleimide (25 mM) were prepared following manufactures protocol and added to respective wells along with blank for background. Total glutathione lysis reagent or oxidized glutathione lysis reagent (25 µl) was added to respective wells containing worm acid supernatants and the plate was shaken for 5 min. Luciferin generation reagent (LGR) (50 µl) was added to all wells, briefly shaken and incubated at room temperature for 30 min. Luciferin detection reagent (LDR) (100 µl) was added to all wells, briefly shaken and incubated for 15 min at room temperature and the luminescence measured using microplate imager (BioTek Cytation3). GSH/GSSH ratio for DMSO control and compounds were calculated using (Net DMSO total glutathione RFU) – (Net DMSO GSSG RFU)/ (Net DMSO GSSG RFU)/2 and (Net inhibitor total glutathione RFU) – (Net inhibitor GSSG RFU)/ (Net inhibitor GSSG RFU)/2 respectively.

PfTrxR = target: T1, PfTrxR (Plasmodium falciparum, UniProt Q25861); assay: P. falciparum TrxR enzyme inhibition; format: biochemical
T1 construct: 6-His (N); made in house; host or cells: E. coli BL21 (DE3)
T1 sequence (Q25861 1-541): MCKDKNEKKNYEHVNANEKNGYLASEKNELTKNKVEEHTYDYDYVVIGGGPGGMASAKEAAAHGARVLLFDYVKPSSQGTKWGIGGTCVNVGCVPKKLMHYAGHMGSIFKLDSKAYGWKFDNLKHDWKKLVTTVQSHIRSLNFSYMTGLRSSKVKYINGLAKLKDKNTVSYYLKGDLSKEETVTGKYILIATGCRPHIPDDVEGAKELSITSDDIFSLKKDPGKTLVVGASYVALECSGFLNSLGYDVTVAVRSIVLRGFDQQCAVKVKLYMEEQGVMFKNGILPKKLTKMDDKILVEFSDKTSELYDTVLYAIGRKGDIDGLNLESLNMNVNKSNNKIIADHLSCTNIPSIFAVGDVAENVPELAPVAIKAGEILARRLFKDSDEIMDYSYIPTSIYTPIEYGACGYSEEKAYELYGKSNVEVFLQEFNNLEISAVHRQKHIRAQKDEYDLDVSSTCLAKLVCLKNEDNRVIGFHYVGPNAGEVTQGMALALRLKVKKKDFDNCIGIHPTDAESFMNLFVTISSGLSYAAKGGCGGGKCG
Protocol: (§1) Recombinant TGR, human TrxR1, B. malayi (Bm)TrxR and human GR proteins were expressed and purified as described[20],[69],[79]. The codon optimized sequence for P. falciparum (PfTrxR, https://www.ncbi.nlm.nih.gov/protein/CAA60574.1/) with an N-terminal 6-His tag was synthesized and inserted into pET15b (GenScript) and expressed in BL21 (DE3) cells and purified as described for human GR[20]. TGR and TrxR enzyme inhibition assays were performed in triplicate at 25 °C as described[20] in 0.1 M potassium phosphate (pH 7.4), 10 mM EDTA, 100 µM NADPH and 0.01% Tween-20. TGR, human TrxR1 and BmTrxR (all at 4 nM) and PfTrxR (50 nM) were preincubated with the compounds for 15 min. The reaction was started with addition of an equal volume of DTNB (6 mM) and NADPH (100 µM) and the increase in A412 during the first 3 min was recorded. […] The reaction was preincubated for 15 min. Activity was initiated with the addition of 1 mM GSSG and 100 μM NADPH and initial rates of NADPH oxidation were monitored at 340 nm. The reactions were done in triplicate. The IC50 was calculated in GraphPad Prism.

Human GR = target: T2, Human GR (Homo sapiens, UniProt P00390); assay: Human GR enzyme inhibition (GSSG reduction, NADPH oxidation); format: biochemical; conditions: 66.7 µM
T2 construct: made in house
T2 sequence (P00390 44-522): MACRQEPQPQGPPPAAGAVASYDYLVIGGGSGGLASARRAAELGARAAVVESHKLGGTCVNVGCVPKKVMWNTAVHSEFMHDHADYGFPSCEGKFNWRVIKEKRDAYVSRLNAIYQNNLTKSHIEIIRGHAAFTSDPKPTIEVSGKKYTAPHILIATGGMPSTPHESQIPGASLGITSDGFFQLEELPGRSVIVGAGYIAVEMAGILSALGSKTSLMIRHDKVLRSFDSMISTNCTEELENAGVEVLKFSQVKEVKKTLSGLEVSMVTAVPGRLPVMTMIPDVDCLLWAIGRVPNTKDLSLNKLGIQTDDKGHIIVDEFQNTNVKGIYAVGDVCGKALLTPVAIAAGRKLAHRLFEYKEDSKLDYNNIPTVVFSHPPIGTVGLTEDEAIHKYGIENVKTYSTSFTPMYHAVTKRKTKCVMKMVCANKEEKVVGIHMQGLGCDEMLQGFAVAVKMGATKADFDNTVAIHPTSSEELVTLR
Protocol: as §1, with “The reaction was preincubated for 15 min.” left out

TGR [1] = target: T3, TGR (Schistosoma mansoni, UniProt Q962Y6, X597U); assay: NADPH consumption (oxidase activity); format: biochemical, S. mansoni
T3 construct: made in house
Protocol: TRi-1, Stattic (both at 50 µM) and AF (20 µM) were incubated with 1 ml of 500 nM TGR and 100 µM NADPH in TGR reaction buffer for 30 min. The samples were desalted using a Zeba spin desalting column (Thermo Fisher Scientific) and 100 µl of the desalted sample was combined with 100 µl of 100 µM NADPH. NADPH consumption was monitored at 340 nm in triplicate. Compounds 1, 4, 6, and 7 (50 µM) were tested in the same fashion without the desalting step and with a first incubation step of 30 min for 6 and 7 and 2 h for 1 and 4.

TGR [2] = target: T4, TGR (Schistosoma mansoni, UniProt Q962Y6); assay: Reversibility by jump dilution; format: biochemical
T4 construct: made in house
T4 sequence (Q962Y6 1-598): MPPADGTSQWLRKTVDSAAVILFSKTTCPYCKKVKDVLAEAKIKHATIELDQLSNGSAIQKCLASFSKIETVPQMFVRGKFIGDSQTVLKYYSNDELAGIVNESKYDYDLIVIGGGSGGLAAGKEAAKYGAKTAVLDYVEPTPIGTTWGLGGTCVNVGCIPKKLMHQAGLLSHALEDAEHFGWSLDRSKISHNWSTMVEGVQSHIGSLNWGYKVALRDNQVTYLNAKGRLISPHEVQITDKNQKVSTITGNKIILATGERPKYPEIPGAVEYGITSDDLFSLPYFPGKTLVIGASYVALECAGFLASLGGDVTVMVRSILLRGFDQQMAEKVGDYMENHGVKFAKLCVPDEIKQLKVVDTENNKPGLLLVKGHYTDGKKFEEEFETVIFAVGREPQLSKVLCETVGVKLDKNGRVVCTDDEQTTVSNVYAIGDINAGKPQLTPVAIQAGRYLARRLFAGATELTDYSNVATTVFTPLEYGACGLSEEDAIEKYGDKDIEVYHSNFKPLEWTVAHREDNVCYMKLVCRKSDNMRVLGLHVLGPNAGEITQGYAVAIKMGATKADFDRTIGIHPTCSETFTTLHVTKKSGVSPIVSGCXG
Protocol: A reaction of 370 nM TGR, 100 µM NADPH, and 250 µM inhibitor was incubated for 15 min at room temperature. A 100x dilution of the reaction was made and the activity was determined immediately and after 60 min.

TGR [3] = target: T3, TGR; assay: Superoxide production (pyrogallol red); format: biochemical, S. mansoni; conditions: replicates
Protocol: The production of superoxide by TGR was determined by monitoring reaction of superoxide with pyrogallol red[80]. Briefly, a 1 ml reaction mix (500 nM TGR, 100 µM NADPH, and 20–50 µM inhibitor) was incubated at room temperature for 30 min for fast inhibitors, or 2 h for slow inhibitors. For irreversible inhibitor controls TRi-1 (synthesized in house as reported[45]), Stattic (Cayman Chemical), and AF (Cayman Chemical), the samples were desalted using a Zeba spin desalting column. 100 µL of sample was combined with pyrogallol buffer with and without superoxide dismutase (SOD) (50 µM pyrogallol red, 300 µM NADPH; ± 10 units SOD). The reaction was measured at A340 and A540 simultaneously for 2 h.

[4] = D0: diluted 1:100, activity determined immediately, list for plotting
[5] = D60: diluted 1:100, activity determined after 60 min, list for plotting

Chain of BmTrxR (A0A1I9G0T9 entry or part of it, added parts left off): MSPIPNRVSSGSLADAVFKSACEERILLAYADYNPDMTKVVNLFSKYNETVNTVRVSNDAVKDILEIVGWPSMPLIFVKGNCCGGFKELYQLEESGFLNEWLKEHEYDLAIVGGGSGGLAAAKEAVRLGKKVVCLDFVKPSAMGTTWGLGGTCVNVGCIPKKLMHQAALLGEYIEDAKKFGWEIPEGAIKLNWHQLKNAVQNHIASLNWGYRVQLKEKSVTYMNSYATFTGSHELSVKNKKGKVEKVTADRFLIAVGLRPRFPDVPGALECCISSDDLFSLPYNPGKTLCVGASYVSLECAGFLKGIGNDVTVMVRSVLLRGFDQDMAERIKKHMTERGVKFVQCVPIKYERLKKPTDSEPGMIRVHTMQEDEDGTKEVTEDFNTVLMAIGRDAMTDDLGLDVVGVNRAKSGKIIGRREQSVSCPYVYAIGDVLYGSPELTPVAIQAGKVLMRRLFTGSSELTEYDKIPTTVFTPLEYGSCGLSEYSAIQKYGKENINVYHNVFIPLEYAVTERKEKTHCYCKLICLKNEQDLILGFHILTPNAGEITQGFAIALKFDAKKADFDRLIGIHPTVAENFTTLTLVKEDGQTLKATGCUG

With `C[C@@H]1[C@H]2C[C@@H](C[C@H]1NC(=O)Cc1nc3ccccc3n1C1CCCCC1)C2(C)C` [Compound 10] the inhibition at 1 µM (BmTrxR; BmTrxR, 1 µM compound, mean of 3 replicates) was 27.9%, the inhibition at 5 µM (BmTrxR; BmTrxR, 5 µM compound, mean of 3 replicates) was 68% and the inhibition at 15 µM (BmTrxR; BmTrxR, 15 µM compound, mean of 3 replicates) was 100%. It also gave an inhibition at 30 µM (BmTrxR; BmTrxR, 30 µM compound, mean of 3 replicates) of 108%, an inhibition at 66.7 µM (BmTrxR; BmTrxR, 66.7 µM compound, mean of 3 replicates) of 106% and an IC50 (BmTrxR; read-out: BmTrxR IC50) of 2.5 µM. The “Ratio GSH/GSSG” value (S. mansoni adult worms) was 63.3816, the IC50 (PfTrxR) was 32.9 ± 4.46 µM and the inhibition at 1 µM (PfTrxR) was 3.2%. For the same compound, the inhibition at 5 µM (PfTrxR) was 6.15%, the inhibition at 15 µM (PfTrxR) was 29.7% and the inhibition at 30 µM (PfTrxR) was 48.5%. For the same compound, the inhibition at 66.7 µM (PfTrxR) was 66.9% and the “Human GR (inhibition at 66.7 µM)” value (Human GR) was “n.i”.
For `O=[N+]([O-])c1ccc2c(c1)S(=O)(=O)C=C2` [Stattic, reference compound], the “NADPH consumption by TGR after exposure” value (TGR [1]) was “converted TGR to a pro-oxidant enzyme”, the “NADPH consumption (rate/ΔOD340)” value (TGR [1]; replicates) was -0.002179 and -0.002159 and -0.002209 and the “reversibility of TGR inhibition” value (TGR [2]; 250 µM inhibitor, 100-fold jump dilution) was “irreversible”. The “% Activity (ID list), D0” value (TGR [2]; [4]) was 1.1% and 0.9% and -0.249%, the “% Inhibition (ID list), D0” value (TGR [2]; [4]) was 98.9% and 99.1% and 100.2% and the “% Activity (ID list), D60” value (TGR [2]; [5]) was -0.15% and 2.9% and 1.8%. The “% Inhibition (ID list), D60” value (TGR [2]; [5]) was 100.1% and 97.1% and 98.2%, the “% Activity, 0 min” value (TGR [2]; [0, D0]: 15 min preincubation inhibitor + TGR + NADPH, diluted 1:100, then activity determined immediately, relative to DMSO) was 1.12% and 0.8821% and -0.2494% and the “% Activity, 60 min” value (TGR [2]; [60, D60]: 15 min preincubation inhibitor + TGR + NADPH, diluted 1:100, then activity determined after 60 min, relative to DMSO) was -0.1498% and 2.864% and 1.829%. For the same compound, the “Inhibitor (rate), -15” value (TGR [2]; [-15]: 15 min preincubation inhibitor + TGR + NADPH, then activity determined, raw rate, replicates) was 0.0007 and 0.0003 and -0.0004, the “% Activity, -15” value (TGR [2]; [-15]: 15 min preincubation inhibitor + TGR + NADPH, then activity determined, relative to DMSO, replicates) was 1.077% and 0.4412% and -0.5874% and the “% Inhibition (ID list)” value (TGR [2]; before dilution (-15), list for plotting) was 100.5% and 100.0% and 98.7%. For the same compound, the “Superoxide production, Pyrogallol red consumption monitored ΔA540” value (TGR [3]; condition not given) was -0.005958 and -0.005844 and -0.006065 and the “Superoxide production, Pyrogallol red consumption monitored ΔA540” value (TGR [3]; second of the two columns per substance (condition not given)) was -6.328e-5 and -6.968e-5 and -6.397e-5.
